Like-named read-outs stand apart in the source and are kept apart here.
Experiments:
[1] = tested on: MIA PaCa-2 (human pancreatic carcinoma) cells; assay: Cell Viability Assay (CellTiter-Glo), MIA PaCa-2; assay type: cell-based
Procedure: Serially-diluted compound or DMSO was added to the cells, and plates were incubated at 37° C., 5% CO2 for 72 h. Cell viability was measured using a CellTiter-Glo® Luminescent Cell Viability Assay kit (Promega) according to the manufacturer's protocol. The luminescence signal of treated samples was normalized to DMSO control, and data were analyzed using a 4-parameter logistic model to calculate IC50 values.

[2] = tested on: A549 (human lung carcinoma) cells; assay: Cell Viability Assay (CellTiter-Glo), A549; assay type: cell-based
In short: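 Cells grown in RPMI 1640 with 10% FBS were seeded at 1.67E+04 cells/mL and left overnight at 37° C., 5% CO2. They were then exposed to serially diluted compound for 72 h, after which CellTiter-Glo luminescence was read, normalized to DMSO, and fitted to a 4-parameter logistic model for IC50.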

[3] = biological target: KRAS G12C (Homo sapiens (Human), UniProt P01116, C118A/G12C); assay: 2 h coupled exchange assay; assay type: biochemical
Chain of KRAS G12C (P01116 other isoform, or with tags, fused parts or gaps G12C/C118A): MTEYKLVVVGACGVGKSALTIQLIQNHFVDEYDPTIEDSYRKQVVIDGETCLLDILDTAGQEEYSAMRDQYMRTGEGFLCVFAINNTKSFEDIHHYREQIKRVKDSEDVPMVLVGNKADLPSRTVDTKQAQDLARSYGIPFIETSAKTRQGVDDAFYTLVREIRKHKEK
Procedure: The term “2 h coupled exchange assay” or “20 h coupled exchange assay” as used herein refers to the assay described in the Section entitled “BIOLOGICAL EVALUATION.”

[4] = Avg 2 h Coupled exchange IC50, 2 h compound pre-incubation
[5] = Avg 2 h Coupled exchange IC50, 2 h compound pre-incubation, SOS-mediated nucleotide exchange

SMILES	IC50 ([1]; Homo sapiens, MIA PaCa-2, 72 h) [nM]	IC50 ([2]; Homo sapiens, A549, 72 h) [nM]	IC50 [3, 4] [nM]	IC50 ([1]; 72 h) [nM]	IC50 ([2]; 72 h) [nM]	IC50 ([3]; read-out: Avg 2 h Coupled exchange IC50, 2 h compound pre-incubation, SOS-mediated nucleotide exchange) [nM]	IC50 [3, 5] [nM]	IC50 ([3]; read-out: Avg 2 h Coupled exchange IC50, 2 h compound pre-incubation) [nM]
C=CC(=O)N1CC2(CCN(c3nc4c(c(-c5ncccc5F)c3C#N)CCC(c3c(C)cnn3C)=C4)C2)C1 [Example 23-58, 7-(1,4-dimethyl-1H-pyrazol-5-yl)-4-(3-fluoro-2-pyridinyl)-2-(2-(2-propenoyl)-2,6-diazaspiro[3.4]octan-6-yl)-5,6-dihydro-3-quinolinecarbonitrile]	2060	10700	841	–	–	–	–	–
C=CC(=O)N1CC2(CCN(c3nc4c(c(-c5c(C)ccc6[nH]ncc56)c3C#N)CC[C@@H](C(F)(F)F)C4)C2)C1 (racemic) [Example 13-10, (7R)-4-(5-methyl-1H-indazol-4-yl)-2-(2-(2-propenoyl)-2,6-diazaspiro[3.4]octan-6-yl)-7-(trifluoromethyl)-5,6,7,8-tetrahydro-3-quinoline-carbonitrile|(7S)-4-(5-methyl-1H-indazol-4-yL)-2-(2-(2-propenoyl)-2,6-diazaspiro[3.4]octan-6-yl)-7-(trifluoromethyl)-5,6,7,8-tetrahydro-3-quinolinecarbonitrile]	–	–	–	246	> 5000	71	–	–
C=CC(=O)N1CC2(CCN(c3nc(-c4cccc5cccc(C)c45)c4c(n3)N(C)CCO4)C2)C1 [Example 1-28, 1-(6-(8-methyl-4-(8-methyl-1-naphthalenyl)-7,8-dihydro-6H-pyrimido[5,4-b][1,4]oxazin-2-yl)-2,6-diazaspiro[3.4]octan-2-yl)-2-propen-1-one]	9360	11500	–	–	–	–	2980	–
C=CC(=O)N1CC2(CCN(c3nc(-c4ccccc4F)c4ccn(C)c4n3)C2)C1 [Example 1-32]	17100	12100	–	–	–	–	250000	–
C=CC(=O)N1CC2(CCN(c3nc4c(c(-c5cccc(C)c5Cl)n3)CCCC4)C2)C1 [Example 1-27, 1-(6-(4-(2-chloro-3-methylphenyl)-5,6,7,8-tetrahydro-2-quinazolinyl)-2,6-diazaspiro[3.4]octan-2-yl)-2-propen-1-one]	11800	20800	–	–	–	–	5170	–
C=CC(=O)N1CC2(CCN(c3nc4c(c(-c5cc(O)ccc5Cl)n3)CCCC4)C2)C1 [Example 1-18, 1-(6-(4-(2-chloro-5-hydroxyphenyl)-5,6,7,8-tetrahydro-2-quinazolinyl)-2,6-diazaspiro[3.4]octan-2-yl)-2-propen-1-one]	8670	9460	–	–	–	–	8460	–
C=CC(=O)N1CC2(CCN(c3nc4c(c(-c5ccc(F)cc5F)c3C#N)CCN(C3CCCN(C)C3)C4)C2)C1 [Example 21-32, 4-(2,4-difluorophenyl)-7-((3R)-1-methyl-3-piperidinyl)-2-(2-(2-propenoyl)-2,6-diazaspiro[3.4]octan-6-yl)-5,6,7,8-tetrahydro-1,7-naphthyridine-3-carbonitrile|4-(2,4-difluorophenyl)-7-((3S)-1-methyl-3-piperidinyl)-2-(2-(2-propenoyl)-2,6-diazaspiro[3.4]octan-6-yl)-5,6,7,8-tetrahydro-1,7-naphthyridine-3-carbonitrile]	1450	8220	355	–	–	–	–	–
C=CC(=O)N1CC2(CCN(c3nc4c(c(-c5c(C)ccc6[nH]ncc56)c3C#N)COC4(C)C)C2)C1 [Example 13-100, 2-(2-acryloyl-2,6-diazaspiro[3.4]octan-6-yl)-7,7-dimethyl-4-(5-methyl-1H-indazol-4-yl)-5,7-dihydrofuro[3,4-b]pyridine-3-carbonitrile]	947	> 5000	–	–	–	–	124	–
C=CC(=O)N1CC2(CCN(c3nc4c(c(-c5c(C)ccc6[nH]ncc56)c3F)C[C@H]3C[C@@H]4C3(C)C)C2)C1 (single isomer, unassigned) [Example 14-73]	11	> 5000	10	–	–	–	–	–
C=CC(=O)N1CC2(CCN(c3nc4c(c(-c5c(F)ccc6[nH]ncc56)c3C#N)COC(C)(C)C4)C2)C1 [Example 13-149, 4-(5-fluoro-1H-indazol-4-yl)-7,7-dimethyl-2-(2-(2-propenoyl)-2,6-diazaspiro[3.4]octan-6-yl)-7,8-dihydro-5H-pyrano[4,3-b]pyridine-3-carbonitrile]	616	11200	–	–	–	–	276	–
C=CC(=O)N1CC2(CCN(c3cc4c(c(-c5cc(O)cc6ccccc56)c3C#N)OCCC4)C2)C1 [Example 2-52, 8-(3-hydroxy-1-naphthalenyl)-6-(2-(2-propenoyl)-2,6-diazaspiro[3.4]octan-6-yl)-3,4-dihydro-2H-chromene-7-carbonitrile]	61	> 5000	–	–	–	–	26	–
C=CC(=O)N1CC2(CCN(c3nc4c(c(-c5cc(O)ccc5Cl)c3C#N)C[C@H]3C[C@@H]4C3(C)C)C2)C1 [Example 2-64, (1R,9R)-6-(2-chloro-5-hydroxyphenyl)-10,10-dimethyl-4-(2-(2-propenoyl)-2,6-diazaspiro[3.4]octan-6-yl)-3-azatricyclo[7.1.1.0^2,7]undeca-2,4,6-triene-5-carbonitrile]	432	> 5000	–	–	–	–	39	–
C=CC(=O)N1CC2(CCN(c3nc4cc(-c5nccs5)cn4c(-c4c(C)ccc5[nH]ncc45)c3C#N)C2)C1 [Example 1-54]	976	> 5000	–	–	–	–	122	–
C=CC(=O)N1CC2(CCN(c3nc4c(c(-c5ccccc5Cl)c3C)CCC(c3c(C)cnn3C)C4)C2)C1 [Example 14-96, 1-(6-((7R)-4-(2-chlorophenyl)-7-(1,4-dimethyl-1H-pyrazol-5-yl)-3-methyl-5,6,7,8-tetrahydro-2-quinolinyl)-2,6-diazaspiro[3.4]octan-2-yl)-2-propen-1-one|1-(6-((7S)-4-(2-chlorophenyl)-7-(1,4-dimethyl-1H-pyrazol-5-yl)-3-methyl-5,6,7,8-tetrahydro-2-quinolinyl)-2,6-diazaspiro[3.4]octan-2-yl)-2-propen-1-one]	852	13400	546	–	–	–	–	–
Cc1ccc2[nH]ncc2c1-c1c(C#N)c(N2CCC3(CN(C(=O)/C=C/C(F)F)C3)C2)nc2c1CCC(C)(C)C2 [Example 13-8, 2-(2-((2E)-4,4-difluoro-2-butenoyl)-2,6-diazaspiro[3.4]octan-6-yl)-7,7-dimethyl-4-(5-methyl-1H-indazol-4-yl)-5,6,7,8-tetrahydro-3-quinolinecarbonitrile]	218	3370	–	–	–	–	44	–
C=CC(=O)N1CC2(CCN(c3nc4cc(-c5scnc5C)ccc4c(-c4ccccc4Cl)c3C#N)C2)C1 (single isomer, unassigned) [Example 20-3, (M)-4-(2-chlorophenyl)-7-(4-methyl-1,3-thiazol-5-yl)-2-(2-(2-propenoyl)-2,6-diazaspiro[3.4]octan-6-yl)-3-quinolinecarbonitrile]	–	> 5000	277	2180	–	–	–	–
C=CC(=O)N1CC2(CCN(c3nc4c(c(-c5cccc(C)c5C)n3)CC[C@@H](c3nccs3)C4)C2)C1 (racemic) [Example 22-3, 1-(6-((7R)-4-(2,3-dimethylphenyl)-7-(1,3-thiazol-2-yl)-5,6,7,8-tetrahydro-2-quinazolinyl)-2,6-diazaspiro[3.4]octan-2-yl)-2-propen-1-one|1-(6-((7S)-4-(2,3-dimethylphenyl)-7-(1,3-thiazol-2-yl)-5,6,7,8-tetrahydro-2-quinazolinyl)-2,6-diazaspiro[3.4]octan-2-yl)-2-propen-1-one]	–	–	–	3310	> 5000	–	–	281
C=CC(=O)N1CC2(CCN(c3nc4c(c(-c5c(N)c(Cl)cc(Cl)c5F)c3C#N)COC(C)(C)C4)C2)C1 (single isomer, unassigned) [Example 13-155, 4-(2-amino-3,5-dichloro-6-fluorophenyl)-7,7-dimethyl-2-(2-(2-propenoyl)-2,6-diazaspiro[3.4]octan-6-yl)-7,8-dihydro-5H-pyrano[4,3-b]pyridine-3-carbonitrile]	–	> 5000	–	93	–	–	111	–
C=CC(=O)N1CC2(CCN(c3nc4c(c(-c5ccc(F)cc5Cl)c3C#N)CCC(c3scnc3C)=C4)C2)C1 (atropisomer, axis not shown; (P)) [Example 23-33, (P)-4-(2-chloro-4-fluorophenyl)-7-(4-methyl-1,3-thiazol-5-yl)-2-(2-(2-propenoyl)-2,6-diazaspiro[3.4]octan-6-yl)-5,6-dihydro-3-quinolinecarbonitrile]	–	–	101	606	> 5000	–	–	–
C=CC(=O)N1CC2(CCN(c3nc4c(c(-c5ccccc5F)c3C#N)CCN(c3ncc(C)s3)C4)C2)C1 [Example 21-20, 4-(2-fluorophenyl)-7-(5-methyl-1,3-thiazol-2-yl)-2-(2-(2-propenoyl)-2.6-diazaspiro[3.4]octan-6-yl)-5,6,7,8-tetrahydro-1,7-naphthyridine-3-carbonitrile]	5250	9880	973	–	–	–	–	–
C=CC(=O)N1CC2(CCN(c3nc4ccccc4c(-c4c(C)c(C)cc5[nH]ncc45)c3C#N)C2)C1 [Example 2-6, 4-(5,6-dimethyl-1H-indazol-4-yl)-2-(2-(2-propenoyl)-2,6-diazaspiro[3.4]octan-6-yl)-3-quinolinecarbonitrile]	237	6250	–	–	–	–	56	–
